According to publication PMC7732128, “Regulation of gene transcription by thyroid hormone receptor β agonists in clinical development for the treatment of non-alcoholic steatohepatitis (NASH)” (PLoS ONE, 2020):
Where two headings read alike, the source gives them in different places.

Columns and labels:
[1] = system: THR (ANGPTL4, CPT1A, DIO1 RNA in Huh-7 cells); experiment: Differential gene expression assay in Huh-7 cells; assay type: cell-based, human; conditions: Homo sapiens
Protocol: Hepatoma-derived Huh-7 cells (JCRB Cell Bank, JCRB0403) were obtained directly from the repository, which performed cell line authentication via isozyme analysis and comprehensively tested for microbial contamination, viral contamination, and cross culture contamination. Cells were routinely cultured in DMEM (Corning, 10-013-CM) supplemented with 10% FBS and 1% P/S at 37°C and 5% CO2 until 80–90% confluency. Cells were then detached with 0.05% trypsin (Corning, 25-052-CV), resuspended in TH-free medium (DMEM supplemented with 10% TH-depleted FBS and 1% P/S), and seeded into collagen-coated, 96-well microplates (Corning, 354407) at 5.0 x 10^4 cells/well. After 24 hrs, the culture medium was replaced with treatment media. Cells were treated for 24 hrs. TH-depletion of the FBS via resin treatment was accomplished as previously described. All treatment media were made by mixing test compounds, serially diluted in DMSO, with TH-free medium (0.1% final DMSO concentration).
After 24 hrs in treatment media, both Huh-7 cells and PHH were processed with the TaqMan Fast Advanced Cells-to-Ct Kit (Invitrogen, A35378), according to the manufacturer’s protocol. Briefly, the treatment media was removed and the cells were washed with 50 μL cold 1X phosphate-buffered saline (Corning, 21-040-CM). Fifty μL lysis buffer containing DNase I was added to each well and the plate was incubated on a rotor at RT for 5 mins. Five μL stop solution was then added to each well and after another 2 mins incubation on a rotor at RT, the cell lysates were used for reverse transcription. The resulting cDNA was diluted 1:2 with nuclease-free, distilled water (Invitrogen, 10977015). Gene expression was measured using TaqMan Fast Advanced Master Mix (Applied Biosystems, 4444964) and the following TaqMan Gene Expression assays (Applied Biosystems, 4331182): 18S (Hs99999901_s1), ACTB (Hs01060665_g1), ANGPTL4 (Hs01101123_g1), CPT1A (Hs00912671_m1), DIO1 (Hs00174944_m1), TFG (Hs02832013_g1), THRA (Hs00268470_m1), and THRB (Hs00230861_m1). ACTB and TFG served as control housekeeping genes for Huh-7 assays and 18S and ACTB for PHH assays. Ten μL reactions were run on the qTOWER³ 84 (Analytik Jena). Relative quantification (RQ) of gene expression was calculated via the 2^−ΔΔCt method and dose-response curves were fitted by non-linear regression with variable slope. Statistical analysis was performed in GraphPad Prism 8.
We aimed to develop an in vitro, cell-based assay that is not only amenable to high throughput screening of compounds, but that can also more reliably recapitulate in vivo processes. Because activated THR may function as a transcription factor, we compared the action of THR agonists in a human hepatocyte-derived cell line and in primary human hepatocytes (PHH) by quantifying transcriptional changes resulting from compound treatment (Fig 2A). Cells were cultured in TH-depleted media for 24 hrs and then treated with compounds for 24 hrs. The RNA levels of THR target genes were then measured via RT-qPCR.

[2] = system: THR (THRSP RNA in PHH); experiment: Differential gene expression assay in primary human hepatocytes (PHH); assay type: cell-based; conditions: Hepatocyte, RT-qPCR, 24 hrs treatment, read-out: PHH EC50 Mean ± SEM
[3] = system: HFD fed rats; experiment: High-fat diet fed rat study: serum and hepatic lipid levels; assay type: in vivo; conditions: 0.5 mg/kg I.P. single dose
Protocol: Animals were purchased from Vital River Laboratory Animal Technology Co. Ltd. and experiments were conducted at Covance Pharmaceutical R&D (Shanghai) Co., Ltd. (China). Animals were group-housed in polycarbonate cages with corncob bedding under controlled temperature (21–25°C), humidity (40–70%), and a 12-hr light/dark cycle. All procedures performed were in compliance with local animal welfare legislation, Covance global policies and procedures, and the Guide for the Care and Use of Laboratory Animals.
Eighty-four male Sprague Dawley rats, approximately 8 to 11 weeks of age, were fed with either a normal diet, ND (D12450K: 10 kcal% fat, no sucrose), or high-fat diet, HFD (D12109C: 40 kcal% fat, 1.25 gm% cholesterol, 0.5 gm% sodium cholate, 12.5 gm% sucrose). After 12 days of diet consumption, baseline serum total cholesterol and low-density lipoprotein cholesterol (LDL-C) levels were measured with the cobas 6000 c501 Chemistry Analyzer (Roche) to confirm hypercholesterolemia in the HFD fed rats. Animals were then randomized into treatment groups.
Twenty-four hrs after dosing, animals were euthanized by CO2 inhalation and serum and plasma were collected along with liver tissue. Serum total cholesterol and LDL-C levels were determined as described above. […] Caudate lobes of the liver were used for analysis of hepatic total cholesterol (Abcam, ab65390) and triglyceride levels (Abcam, ab65336) via enzyme-linked immunosorbent assay. Right lateral lobes were stored in RNAlater (Invitrogen, AM7020) at -70°C until homogenization with the Scientz-48 TissueLyser LT for downstream gene expression analysis. RNA extraction was performed at WuXi AppTec (Hong Kong) Limited (China) with the RNeasy Mini Kit (Qiagen, 74106) and RNA concentration and quality was determined using the Nanodrop 2000 (Thermo Scientific); additional quality control was assessed with agarose gel electrophoresis. One μg total RNA from each sample was then reverse-transcribed using the High Capacity cDNA Reverse Transcription kit (Applied Biosystems, 4368814) and the resulting cDNA was diluted 1:5 with nuclease-free, distilled water. Gene expression was measured using TaqMan Fast Advanced Master Mix and the following TaqMan Gene Expression assays: Actb (Rn00667869_m1), Cpt1a (Rn00580702_m1), Dio1 (Rn00572183_m1), Me1 (Rn00561502_m1), Rplp1 (Rn03467157_gH), and Thrsp (Rn01511034_m1). Actb and Rplp1 served as control housekeeping genes. Ten μL reactions were run on the qTOWER³ 84. Relative quantification (RQ) of gene expression was calculated via the 2^−ΔΔCt method and statistical analysis was performed in GraphPad Prism 8.0 and Microsoft Excel.

[4] = Huh-7, CPT1A RNA, RT-qPCR, 24 hrs treatment, read-out: Huh-7 EC50 Mean ± SEM
[5] = Huh-7, 24 hrs, n = 2 (Fig 2C), read-out: mean EC50, ANGPTL4
[6] = Huh-7, 24 hrs, n = 2 (Fig 2C), read-out: mean EC50, CPT1A
[7] = Huh-7, 24 hrs, n = 2 (Fig 2C), read-out: mean EC50, DIO1

| Compound | EC50 [1, 4] [nM] | EC50 [1, 5] [nM] | EC50 [1, 6] [nM] | EC50 [1, 7] [nM] | EC50 [2] [nM] | decrease in serum total cholesterol (pre-dose vs 24 hrs post-dose) [3] [%] | decrease in serum triglyceride levels (pre-dose vs 24 hrs post-dose) [3] [%] |
| --- | --- | --- | --- | --- | --- | --- | --- |
| N[C@@H](Cc1cc(I)c(Oc2ccc(O)c(I)c2)c(I)c1)C(=O)O [T3, triiodothyronine] | […] | […] | […] | […] | […] | 68.2 | 71.2 |
